The values that follow come from paper PMC7708037, “Targeting OGG1 arrests cancer cell proliferation by inducing replication stress” (Nucleic Acids Research, 2020).

“Also recorded” adds a separate entry of the source.

The subject of test [1] is EdU incorporation in A3 cells. As to the kind of experiment: EdU flow cytometry analysis. In kind it is cell-based, human. Particulars: 10 μM. As for the experimental part:
At the indicated time points, compound/dox treated cells were incubated in medium containing 10 μM 5-ethynyl-2′-deoxyuridine (EdU) (Thermo Fisher, A10044) for 20 min. Next, cells were fixed in cold 70% ethanol overnight. The azide alkyne Huisgen cycloaddition (‘Click reaction’) was carried out according to the Click-iT EdU Imaging Manual (Thermo Fisher) using various fluorescent dyes: Alexa Fluor® 488 azide (Thermo Fisher, A10266), Alexa Fluor® 647 azide (Thermo Fisher, A10277), or TAMRA azide (Thermo Fisher, T10182), depending on assay conditions. Samples were incubated with Alexa Fluor® 488 Mouse anti-H2AX (pS139) (BD Biosciences, 560445) overnight at 4°C and finally stained with DAPI solution [10 μg/ml DAPI (Sigma, D9542), 0.1 mg/ml RNase A (Thermo Fisher, EN0531), 1% BSA in PBS] for 20 min at room temperature. Measurements were done using a Navios Flow Cytometer (Beckman Coulter). Data was analyzed using Kaluza® Flow Analysis Software (Beckman Coulter).
Supplementary Fig. S7: EdU incorporation in OGG1 perturbed A3 cells. A. Cells harboring the indicated shRNA constructs were treated with doxycycline for 48, 96 and 144 h and pulsed with EdU for 20 minutes before fixation, followed by Alexa-488 conjugation by click chemistry and quantitation by flow cytometry. […] Statistical significance was determined using unpaired, two-sided T-tests (*, […]
(In general: In flow cytometry, cells or beads pass a laser one at a time.)

Test [2] has as its system replication fork rate in A3 cells. As to the kind of experiment: DNA fibre assay. In kind it is cell-based, human. Conditions: 10 μM, 48 and 72 h. How it is done:
A3 Cells were exposed to either 0.1% DMSO or 10 μM TH5487 for the indicated times, pulse-labeled with 25 μM 5-chloro-2′-deoxyuridine (CldU) for 30 min, washed with medium and pulse-labeled with 250 μM 5-iodo-2′-deoxyuridine (IdU) for 30 min. Alternatively, control or OGG1 shRNA expression was induced with 1 μg/ml doxycyline for 48 h or 96 h before pulse labelling. CldU was detected by incubating acid-treated fiber spreads in Ibidi μ-Slide VI 0.4 (Ibidi, 80606) with rat anti-BrdU monoclonal antibody (AbD Serotec; cat# MCA2060), whereas IdU was detected using mouse anti-BrdU monoclonal antibody (BD Biosciences; cat# 347580) for 1 h at 37°C. […] The lengths of red (AF 555) or green (AF 488) labeled patches were measured using the ImageJ software (National Institutes of Health; http://rsbweb.nih.gov/ij/) and arbitrary length values were converted into micrometers.
Figure 5. […] A3 cells were treated with 20 mM KBrO3 for 1 h or with 10 μM TH5487 for the indicated times, and the amount of genomic 8-oxodG was quantified with LC-MS/MS. […] A3 cells were treated with 10 μM TH5487 for 72 h and strand-breaks and OGG1 substrate lesions were analyzed with the OGG1-modified Comet assay. […] Cells were treated as in B, and the tail moment of the cells were analyzed using blinded automatic analysis (n = 200 per condition from two independent experiments). […] At least 300 forks were scored per condition. […]

Turning to `O=C(Nc1ccc(I)cc1)N1CCC(n2c(=O)[nH]c3c(Br)cccc32)CC1` [TH5487], in test [1], the “DNA synthesis (EdU incorporation)” value is on record as “only detectable after 96 h treatment; also recorded: DNA synthesis was reduced”. Moreover, the Replication fork rate entry in test [2] is reported as “marked reduction”.
